Data published in US20250152585A1, “PHARMACEUTICAL COMPOUND” (Duke Street Bio Limited, priority 2022, published 2025).
Like-named read-outs stand apart in the source and are kept apart here.

Assays:
[1] = target: T1, full length N-terminally FLAG-tagged PARP1 (Homo sapiens, UniProt P09874); experiment: PARP1 probe displacement HTRF assay; settings: for Selectivity: PARP1 over PARP2, ratio Kd (PARP2)/Kd (PARP1); for Kd: binned Kd
[2] = target: T1, full length N-terminally FLAG-tagged PARP1; experiment: PARP1 biochemical DELFIA assay (auto-PARylation); set-up: recombinant full length human N-terminally FLAG-tagged PARP1
[3] = target: T2, N-terminally FLAG-tagged PARP2 (amino acids 1-583) (Homo sapiens, UniProt Q9UGN5); experiment: PARP2 probe displacement HTRF assay; type: binding; settings: binned Kd
T2 construct: N-terminally FLAG-tagged PARP2 (amino acids 1-583)
Description: Data analysis was performed identical as for PARP1.

[4] = read-out: PARP1 HTRF, probe displacement HTRF
[5] = binned IC50, biochemical auto-PARylation assay
[6] = read-out: PARP1 HTRF, PARP1 probe displacement HTRF
[7] = binned IC50, PARP1 biochemical DELFIA assay

T2 sequence (Q9UGN5 whole entry, the tested form may be a part): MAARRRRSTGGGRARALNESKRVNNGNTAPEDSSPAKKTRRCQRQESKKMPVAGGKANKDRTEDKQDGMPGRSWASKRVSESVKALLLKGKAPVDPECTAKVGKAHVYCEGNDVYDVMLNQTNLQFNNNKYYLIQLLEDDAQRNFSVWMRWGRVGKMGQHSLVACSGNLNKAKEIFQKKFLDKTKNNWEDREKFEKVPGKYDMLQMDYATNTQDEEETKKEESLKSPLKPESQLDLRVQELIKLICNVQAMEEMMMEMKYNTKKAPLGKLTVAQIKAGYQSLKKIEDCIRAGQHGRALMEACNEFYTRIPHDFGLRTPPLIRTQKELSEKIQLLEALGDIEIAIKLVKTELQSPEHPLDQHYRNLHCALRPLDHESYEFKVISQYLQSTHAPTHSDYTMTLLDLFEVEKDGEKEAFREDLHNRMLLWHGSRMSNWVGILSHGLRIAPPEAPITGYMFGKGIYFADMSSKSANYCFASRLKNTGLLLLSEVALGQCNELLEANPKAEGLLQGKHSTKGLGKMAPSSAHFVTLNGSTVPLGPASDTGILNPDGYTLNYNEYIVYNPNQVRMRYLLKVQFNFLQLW
T1 sequence (P09874 whole entry): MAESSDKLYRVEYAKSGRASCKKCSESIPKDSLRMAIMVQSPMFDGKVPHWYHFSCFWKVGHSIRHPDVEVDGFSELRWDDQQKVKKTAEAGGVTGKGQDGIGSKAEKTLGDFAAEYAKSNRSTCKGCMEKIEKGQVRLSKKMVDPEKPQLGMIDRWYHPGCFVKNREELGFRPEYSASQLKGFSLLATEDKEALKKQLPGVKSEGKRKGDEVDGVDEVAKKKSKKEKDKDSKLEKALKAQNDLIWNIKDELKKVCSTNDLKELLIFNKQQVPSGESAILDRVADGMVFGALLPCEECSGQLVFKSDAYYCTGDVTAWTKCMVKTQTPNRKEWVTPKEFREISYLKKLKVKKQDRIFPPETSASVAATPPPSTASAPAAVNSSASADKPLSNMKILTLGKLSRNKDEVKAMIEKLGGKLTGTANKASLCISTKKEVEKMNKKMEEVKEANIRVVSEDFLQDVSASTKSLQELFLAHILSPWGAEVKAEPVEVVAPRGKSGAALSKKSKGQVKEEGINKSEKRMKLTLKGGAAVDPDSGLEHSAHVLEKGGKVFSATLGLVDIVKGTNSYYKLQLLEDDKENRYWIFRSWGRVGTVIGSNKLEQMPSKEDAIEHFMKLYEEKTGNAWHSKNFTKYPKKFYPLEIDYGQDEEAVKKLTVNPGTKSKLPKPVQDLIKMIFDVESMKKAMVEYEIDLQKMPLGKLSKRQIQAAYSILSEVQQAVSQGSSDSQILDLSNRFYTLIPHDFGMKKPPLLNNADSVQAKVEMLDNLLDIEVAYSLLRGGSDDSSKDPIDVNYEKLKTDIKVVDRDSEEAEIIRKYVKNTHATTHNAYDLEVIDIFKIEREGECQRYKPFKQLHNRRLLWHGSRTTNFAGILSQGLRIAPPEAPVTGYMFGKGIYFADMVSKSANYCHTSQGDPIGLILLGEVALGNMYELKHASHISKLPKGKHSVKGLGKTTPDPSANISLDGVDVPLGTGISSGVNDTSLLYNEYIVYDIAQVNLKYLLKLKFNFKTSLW

Row | Kd [1, 4] [nM] | IC50 [2, 5] [nM] | Kd ([3]; probe displacement HTRF) [µM] | Kd [1, 6] [nM] | IC50 [2, 7] [nM] | Kd ([3]; PARP2 probe displacement HTRF) [µM] | Kd ([1]; PARP1 HTRF, PARP1 probe displacement HTRF) [nM] | SMILES | Selectivity ([1]; probe displacement HTRF)
1 | 100 to 1000 | 100 to 1000 | > 10 |  |  |  |  | CNC1(c2ccc(N3CCC(N4CCC(c5nc6ccccc6c(=O)[nH]5)C4)CC3)cn2)CC1 (racemic) [Compound 412rac] | + (+ indicates a value of 10 to less than 50)
2 |  |  |  | 10 to 100 | 10 to 100 | > 10 |  | CNC(=O)c1ccc(N2CCC(N3CCCC(c4ncc(C)c(=O)[nH]4)C3)CC2)cn1 (single isomer, unassigned) [Compound 33b] | ++ (++ indicates a value of 50 to less than 100)
3 |  |  |  | < 10 | < 10 | 0.1 to 1 |  | CNC(=O)c1ccc(N2CCC(N3CCC(c4cc5c(Cl)cccc5c(=O)[nH]4)C3)CC2)cn1 (single isomer, unassigned) [Compound 137a] | +++ (+++ indicate a value of at least 100)
4 |  |  |  | 10 to 100 | 10 to 100 | > 10 |  | CNC(=O)c1ccc(N2CCC(CN3CCC(c4nc5ccccc5c(=O)[nH]4)CC3)C2)cn1 (single isomer, unassigned) [Compound 50b] | +++ (+++ indicate a value of at least 100)
5 |  |  |  |  | 10 to 100 | 0.1 to 1 | 10 to 100 | CNC(=O)c1ccc(N2CCC(N3CCC(c4nc5c(Cl)cccc5c(=O)[nH]4)C3)CC2)cn1 (single isomer, unassigned) [Compound 52a, 5-(4-(3-(8-chloro-4-oxo-3,4-dihydroquinazolin-2-yl)pyrrolidin-1-yl)piperidin-1-yl)-N-methylpicolinamide] | − (− indicates a value of less than 10)
6 | 10 to 100 | 10 to 100 | > 10 |  |  |  |  | CNC(=O)c1ccc(N2CCC(N3CCC(c4ccc(CCOC)c(=O)[nH]4)C3)CC2)cn1 (single isomer, unassigned) [Compound 240a] | ++ (++ indicates a value of 50 to less than 100)
7 | 10 to 100 | 10 to 100 | 0.1 to 1 |  |  |  |  | CS(=O)(=O)Nc1ccc(N2CCC(N3CCC(c4cc5ccccc5c(=O)[nH]4)C3)CC2)cc1 (single isomer, unassigned) [Compound 251b] | + (+ indicates a value of 10 to less than 50)
8 |  |  |  | 100 to 1000 | 100 to 1000 | > 10 |  | CNC(=O)c1ccc(N2CCC(N3CCCC(c4nc5ncccc5c(=O)[nH]4)C3)CC2)cn1 (single isomer, unassigned) [Compound 98b] | + (+ indicates a value of 10 to less than 50)
9 | < 10 | 10 to 100 | 1 to 10 |  |  |  |  | CCc1ccc(C2CCN(C3CCN(c4ccc(C#N)nc4)CC3)C2)[nH]c1=O (single isomer, unassigned) [Compound 326b] | +++ (+++ indicate a value of at least 100)
10 |  |  |  | 10 to 100 | 10 to 100 | > 10 |  | CNC(=O)c1ccc(N2CCC(N3CCOC(c4nc5ccccc5c(=O)[nH]4)C3)CC2)cn1 (single isomer, unassigned) [Compound 58b] | ++ (++ indicates a value of 50 to less than 100)
11 | < 10 | < 10 | 0.1 to 1 |  |  |  |  | O=C(NCC(F)F)c1ccc(N2CCC(N3CCC(c4cc5ccc(F)cc5c(=O)[nH]4)C3)CC2)c(F)n1 (single isomer, unassigned) [Compound 399a] | +++ (+++ indicate a value of at least 100)
12 | 10 to 100 | 10 to 100 | > 10 |  |  |  |  | CNC(=O)c1cnc(N2CCC(N3CCC(c4cc5ccccc5c(=O)[nH]4)C3)CC2)s1 (racemic) [Compound 253rac] | + (+ indicates a value of 10 to less than 50)
13 |  |  |  | 100 to 1000 | 100 to 1000 | > 10 |  | CNC(=O)c1ccc(N2CC(N3CCCC(Cc4nc5ccccc5c(=O)[nH]4)C3)C2)cn1 (single isomer, unassigned) [Compound 51a] | + (+ indicates a value of 10 to less than 50)
